Source: ChEMBL document CHEMBL3885861, “Open TG-GATES”

Species on record: Rattus norvegicus
Assay: Open TG-GATES - Regimen: Daily Repeat
Type: toxicity, organism-based, Sprague-Dawley
Design: regimen Daily Repeat, gender Male, age 6 weeks
Conditions: in vivo, po, route gavage; for TP / gamma-GTP / ALP / ALT / AST / BUN / CRE / Ca / DBIL / GLC / K / LDH / Na / PL / RALB / TBIL / TC / TG: tissue Plasma; for Bas / Eos / Fbg / Hb / Ht / Lym / MCH / MCV / Mono / Neu / PT / Plat / RBC / Ret / WBC / APTT / MCHC: tissue Blood; for KIDNEY_L / KIDNEY_R / KIDNEY_TOTAL: tissue Kidney; for LIVER: tissue Liver
[1] = 0 mg/kg, […], dose level Control, time 28 day
[2] = 20 mg/kg, 72 h, dose level Low, time 3 day
[3] = 20 mg/kg, […], dose level Low, time 7 day
[4] = 20 mg/kg, […], dose level Low, time 14 day
[5] = 20 mg/kg, […], dose level Low, time 28 day

With CCCCc1oc2ccccc2c1C(=O)c1cc(I)c(OCCN(CC)CC)c(I)c1 [AMIODARONE] the TP [1] was 6 g/dL, the gamma-GTP [1] was 1 IU/L and the TERMINAL_BW [2] was 226.2 g. The Bas [2] was 0%, the Eos [2] was 0.8% and the Fbg [2] was 227.8 mg/dL. It also gave a Hb [2] of 13.5 g/dL, a Ht [2] of 39% and a Lym [2] of 78.2%. It also gave an MCH [2] of 22.1 pg, an MCV [2] of 63.9 fL and a Mono [2] of 3%. For the same compound, the Neu [2] was 16.6%, the PT [2] was 12.8 s and the Plat [2] was 125.2 x10_4/uL. The RBC [2] was 610.8 x10_4/ul, the Ret [2] was 6.1% and the WBC [2] was 101.8 x10_2/uL. The KIDNEY_L [2] was 1 g, the KIDNEY_R [2] was 1 g and the KIDNEY_TOTAL [2] was 2.1 g. The LIVER [2] was 11 g, the ALP [2] was 1159.8 IU/L and the ALT [2] was 38.8 IU/L. It also gave an AST [2] of 71 IU/L, a BUN [2] of 17 mg/dL and a CRE [2] of 0.4 mg/dL. For the same compound, the Ca [2] was 10.7 mg/dL, the DBIL [2] was 0.088 mg/dL and the GLC [2] was 200 mg/dL. The K [2] was 3.8 meq/L, the LDH [2] was 215.2 IU/L and the Na [2] was 140.4 meq/L. The PL [2] was 144.2 mg/dL, the RALB [2] was 3.4 g/dL and the TBIL [2] was 0.1 mg/dL. It also gave a TC [2] of 72.8 mg/dL, a TG [2] of 88.8 mg/dL and a TP [2] of 5.7 g/dL. For the same compound, the gamma-GTP [2] was 1.6 IU/L, the TERMINAL_BW [3] was 267.4 g and the TERMINAL_BW [4] was 322 g. The TERMINAL_BW [5] was 379.8 g, the APTT [3] was 18.5 s and the Bas [3] was 0%. It also gave an Eos [3] of 0.8%, a Fbg [3] of 222 mg/dL and a Ht [3] of 39.1%. It also gave a Lym [3] of 79.6%, an MCH [3] of 21.1 pg and an MCHC [3] of 34.1%. The MCV [3] was 62 fL, the Mono [3] was 2.8% and the Neu [3] was 15.6%. For the same compound, the Plat [3] was 126.6 x10_4/uL, the RBC [3] was 630 x10_4/ul and the Ret [3] was 6.1%. The WBC [3] was 117.1 x10_2/uL, the APTT [4] was 19.7 s and the Bas [4] was 0%. It also gave an Eos [4] of 1%, a Fbg [4] of 216.8 mg/dL and a Hb [4] of 14.2 g/dL. It also gave a Ht [4] of 41.2%, a Lym [4] of 79.6% and an MCH [4] of 20.4 pg. It also gave an MCV [4] of 59.2 fL, a Mono [4] of 2.8% and a Neu [4] of 15.6%. It also gave a PT [4] of 12.8 s, a Plat [4] of 116.8 x10_4/uL and an RBC [4] of 696.4 x10_4/ul. For the same compound, the Ret [4] was 4.6%, the WBC [4] was 84.5 x10_2/uL and the APTT [5] was 19.6 s. It also gave a Bas [5] of 0%, an Eos [5] of 1.2% and a Fbg [5] of 221.6 mg/dL. The Ht [5] was 43.5%, the Lym [5] was 78.2% and the MCH [5] was 19.6 pg. It also gave an MCHC [5] of 35.1%, an MCV [5] of 56 fL and a Mono [5] of 2.8%. For the same compound, the Neu [5] was 16.6%, the PT [5] was 12.3 s and the Plat [5] was 109.6 x10_4/uL. For the same compound, the RBC [5] was 777.2 x10_4/ul, the Ret [5] was 2.7% and the WBC [5] was 117.6 x10_2/uL. For the same compound, the KIDNEY_L [3] was 1.1 g, the KIDNEY_R [3] was 1.1 g and the KIDNEY_TOTAL [3] was 2.2 g. The KIDNEY_L [4] was 1.3 g, the KIDNEY_R [4] was 1.3 g and the KIDNEY_TOTAL [4] was 2.5 g. For the same compound, the KIDNEY_L [5] was 1.3 g, the KIDNEY_R [5] was 1.3 g and the KIDNEY_TOTAL [5] was 2.6 g. For the same compound, the LIVER [3] was 12.7 g, the LIVER [4] was 14.6 g and the LIVER [5] was 15.5 g. The ALP [3] was 1065 IU/L, the ALT [3] was 33 IU/L and the AST [3] was 61.8 IU/L. It also gave a CRE [3] of 0.4 mg/dL, a Ca [3] of 10.7 mg/dL and a DBIL [3] of 0.1 mg/dL. For the same compound, the GLC [3] was 216.6 mg/dL, the K [3] was 3.8 meq/L and the LDH [3] was 197.4 IU/L. For the same compound, the Na [3] was 140.6 meq/L, the RALB [3] was 3.3 g/dL and the TBIL [3] was 0.2 mg/dL. It also gave a TC [3] of 70.8 mg/dL, a TG [3] of 89.4 mg/dL and a TP [3] of 5.5 g/dL. For the same compound, the gamma-GTP [3] was 1.2 IU/L, the ALP [4] was 861.4 IU/L and the ALT [4] was 38 IU/L. The AST [4] was 63.6 IU/L, the BUN [4] was 17.4 mg/dL and the CRE [4] was 0.4 mg/dL. For the same compound, the Ca [4] was 10.5 mg/dL, the DBIL [4] was 0.1 mg/dL and the GLC [4] was 220.6 mg/dL. For the same compound, the K [4] was 4 meq/L, the LDH [4] was 196.2 IU/L and the Na [4] was 139.6 meq/L. It also gave a PL [4] of 161.6 mg/dL, an RALB [4] of 3.3 g/dL and a TBIL [4] of 0.2 mg/dL. It also gave a TC [4] of 81.2 mg/dL, a TG [4] of 148.2 mg/dL and a TP [4] of 5.7 g/dL. The gamma-GTP [4] was 1.4 IU/L, the ALP [5] was 765.6 IU/L and the ALT [5] was 40 IU/L. The AST [5] was 66.2 IU/L, the BUN [5] was 18.2 mg/dL and the CRE [5] was 0.5 mg/dL. It also gave a Ca [5] of 10.5 mg/dL, a DBIL [5] of 0.1 mg/dL and a GLC [5] of 213.2 mg/dL. It also gave a K [5] of 3.8 meq/L, an LDH [5] of 192.6 IU/L and a Na [5] of 140.4 meq/L. For the same compound, the PL [5] was 160.8 mg/dL, the RALB [5] was 3.5 g/dL and the TBIL [5] was 0.2 mg/dL. For the same compound, the TC [5] was 73.8 mg/dL, the TG [5] was 164.6 mg/dL and the TP [5] was 6.1 g/dL. For the same compound, the gamma-GTP [5] was 1.4 IU/L.
